pIC50: −log10 of the molar value. Like-named read-outs stand apart in the source and are kept apart here.
Columns and labels:
Sprague-Dawley rats [1] = test: Acute nociceptive responses in healthy rats, Hargreaves thermal withdrawal latency; type: in vivo, rat; settings: healthy rats
Sprague-Dawley rats [2] = test: Open field activity; type: in vivo, rat; settings: 1 h following administration
Method: For the measurement of open field activity animals were placed in an acrylic chamber (40×40×20 cm length×width×height) divided into 100 cm^2 (10×10 cm) sections. The number of crossings were recorded when both hind paws crossed into a neighboring cell.

recombinant mouse sEH = biological target: T1, recombinant mouse sEH (Mus musculus, UniProt P34914); test: Potency on recombinant mouse sEH, fluorescent substrate; type: biochemical
T1 construct: made in house
T1 sequence (P34914 1-554): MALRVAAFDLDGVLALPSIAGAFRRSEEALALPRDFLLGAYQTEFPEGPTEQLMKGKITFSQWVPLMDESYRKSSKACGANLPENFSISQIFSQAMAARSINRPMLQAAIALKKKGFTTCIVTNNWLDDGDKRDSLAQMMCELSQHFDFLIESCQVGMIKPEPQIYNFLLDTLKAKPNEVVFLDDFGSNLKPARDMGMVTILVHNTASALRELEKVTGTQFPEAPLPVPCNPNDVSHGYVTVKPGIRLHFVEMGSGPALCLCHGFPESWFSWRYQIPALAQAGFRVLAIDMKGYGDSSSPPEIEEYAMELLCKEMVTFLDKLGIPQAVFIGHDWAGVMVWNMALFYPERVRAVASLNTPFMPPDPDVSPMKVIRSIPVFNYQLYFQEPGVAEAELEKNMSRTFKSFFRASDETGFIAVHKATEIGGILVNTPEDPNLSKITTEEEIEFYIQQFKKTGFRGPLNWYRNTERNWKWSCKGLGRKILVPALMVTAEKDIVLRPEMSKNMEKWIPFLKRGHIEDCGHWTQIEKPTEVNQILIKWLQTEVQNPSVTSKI

recombinant rat sEH = biological target: T2, recombinant rat sEH (Rattus norvegicus, UniProt P80299); test: Potency on recombinant rat sEH, fluorescent substrate; type: biochemical
T2 construct: made in house
T2 sequence (P80299 1-554): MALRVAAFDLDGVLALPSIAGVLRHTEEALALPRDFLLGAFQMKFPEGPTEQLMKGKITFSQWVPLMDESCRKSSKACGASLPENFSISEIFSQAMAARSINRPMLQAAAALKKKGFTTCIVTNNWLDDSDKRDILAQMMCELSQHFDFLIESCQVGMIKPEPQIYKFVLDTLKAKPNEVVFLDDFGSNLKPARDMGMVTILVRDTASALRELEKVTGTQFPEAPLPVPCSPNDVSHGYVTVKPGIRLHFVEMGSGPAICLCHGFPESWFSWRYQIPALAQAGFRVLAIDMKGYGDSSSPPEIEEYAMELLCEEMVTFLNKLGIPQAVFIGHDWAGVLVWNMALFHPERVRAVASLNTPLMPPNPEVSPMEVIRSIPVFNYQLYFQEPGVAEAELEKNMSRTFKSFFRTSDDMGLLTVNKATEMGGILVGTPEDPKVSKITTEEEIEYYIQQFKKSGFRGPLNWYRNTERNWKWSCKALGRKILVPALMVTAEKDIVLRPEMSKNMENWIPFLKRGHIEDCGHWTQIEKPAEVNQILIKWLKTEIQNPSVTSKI

[3] = tested on: endogenous oxylipin sEH substrates and products in rat plasma; test: Oxylipin analysis in rat plasma after sEHI / PDE inhibitor administration (LC-ESI-MS/MS); type: in vivo; settings: rat plasma 60 min after s.c., TPAU 10 mg/kg, rolipram 1 mg/kg;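 note: plasma from tail vein blood, oxylipins quantified by LC-ESI-MS/MS against deuterated internal standards following solid-phase extraction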

Question: What does the source list for `COc1ccc(C2CNC(=O)C2)cc1OC1CCCC1` (stereo not shown) [Rolipram]?
Answer: thermal withdrawal latency (Sprague-Dawley rats [1]; 2 and 4 h after treatments): devoid of effect on withdrawal latency; thermal withdrawal latency / pain related behavior, change from predrug baseline (Sprague-Dawley rats [1]; s.c., about 1 h after administration): effective in elevating pain thresholds; voluntary movement in an open-field chamber (motor depressant effect) (Sprague-Dawley rats [2]): significant and dose-dependent decrease in voluntary movement; pIC50 (recombinant mouse sEH): < 5.00; inhibitory activity in the sEH assay (recombinant rat sEH; 10 and 100 μM, recombinant rat enzyme): No inhibition was observed; pIC50 (recombinant rat sEH; read-out: IC50 on recombinant rat sEH): < 4.00; pIC50 (recombinant rat sEH; recombinant sEH, read-out: IC50 Rat): < 5.00; 8(9)-EpETE [3]: 1.25 nM; 8(9)-EpETrE [3]: 9.63 nM; 8,9-DiHETE [3]: 0.07 nM; 8,9-DiHETrE [3]: 0.45 nM; 9(10)-EpOME [3]: 55.27 nM; 9,10-DiHOME [3]: 24.32 nM; 10(11)-EpDPE [3]: 7.51 nM; 10,11-DiHDPE [3]: 0.33 nM; 11(12)-EpETE [3]: 0.93 nM; 11(12)-EpETrE [3]: 13.15 nM; 11,12-DiHETE [3]: 0.20 nM; 11,12-DiHETrE [3]: 1.67 nM; 12(13)-EpOME [3]: 36.32 nM; 12,13-DiHOME [3]: 42.01 nM; 13(14)-EpDPE [3]: 3.88 nM; 13,14-DiHDPE [3]: 0.37 nM; 14(15)-EpETE [3]: 0.84 nM; 14(15)-EpETrE [3]: 8.52 nM; 14,15-DiHETE [3]: 0.28 nM; 14,15-DiHETrE [3]: 1.74 nM; 16(17)-EpDPE [3]: 3.93 nM; 16,17-DiHDPE [3]: 0.72 nM; 17(18)-EpETE [3]: 1.76 nM; 17,18-DiHETE [3]: 0.77 nM; 19(20)-EpDPE [3]: 7.46 nM; 19,20-DiHDPE [3]: 2.13 nM; total Dihydroxyeicosanoid [3]: 75.1 nM; total Epoxyeicosanoid [3]: 150.4 nM; 12(13)-EpOME ([3]; listed as rolipram): no increase; 12,13-DiHOME ([3]; listed as rolipram): significant elevation

From patent US20130065936A1, “MODULATION OF BIOACTIVE EPOXY-FATTY ACID LEVELS BY PHOSPHODIESTERASE INHIBITORS” (THE REGENTS OF THE UNIVERSITY OF CALIFORNIA, priority 2010, published 2013)
